Results from patent US9289388B2, “Methods and compositions for delivery of medicaments to the lungs” (Paka Pulmonary Pharmaceuticals, Inc., priority 2008, dated 2016).

Columns and labels:
mice exposed to HNE = test: Bronchoalveolar lavage of the lungs following HNE exposure (lung blood cell level); type: in vivo
Description: A total of 14 animals were used in this study. Anesthetized mice received 0.1 ml of solution delivered by a blunt tip catheter to the opening of the trachea and the animals allowed to aspirate the solution into their lungs (this method is also referred to as intratracheal instillation). All animals were exposed to the treatment for 2 hours and re-anesthetized. Bronchoalveolar lavage of the lungs was performed as described below. […] Target 2 (a potent HNE inhibitor developed by Zeneca in the early 1990s) when given with the HNE, reduced the average blood level in the lungs by 34% to 0.035 grams. Target C (the Zeneca molecule covalently attached to the N-terminus of the first 25 residues of the human surfactant B peptide) when given with the HNE reduced the average blood level in the lungs by 87% to 0.007 grams.
A set of animals was used to determine the optimal concentration of HNE for the study. […] The amount of HNE was reduced to 40 micrograms to maintain a maximal detrimental but survivable effect. The animals exposed to 40 micrograms of HNE were able to survive long enough to perform the complete study. All animals remaining in the complete study were exposed to 40 micrograms of HNE.
(§1) Target 2 (the Zeneca molecule) was given in a 70-fold molar excess relative to HNE. In the kinetic studies, Target 2 has 2 nM affinity. […] Accordingly, the Target C was given to the animals in a 100 fold molar excess relative to HNE in these studies.
Bronchio-Alveolar lavage (BAL) is performed by 1) anesthetizing the animals; 2) performing a tracheotomy on the animals and cutting open the chest and spreading the ribs to enable full lung expansion; 3) pressurizing 1 ml of PBS buffer solution into the lungs through the tracheotomy catheter; 4) sucking the solution out of the lungs; 5) centrifuging the recovered solution to separate the red blood cell fraction from the liquid fraction; and 6) weighing the red blood cell fraction.

[1] = test system: mice with HNE induced emphysema; test: HNE induced emphysema, intratracheal delivery, lung histology and mean linear intercept after four weeks; type: in vivo
Description: A total of 42 animals were used in this study. Anesthesized mice received 0.1 ml of solution delivered by intratracheal instillation as described above in Example 4. Animals were divided into the following treatment groups: four animals received saline only; ten animals received HNE only; four animals received the Zeneca inhibitor (target 2) only; eight animals received HNE mixed with the Zeneca inhibitor (target 2); eight animals received Zeneca inhibitor linked to a lung surfactant peptide (target C) only; and eight animals received HNE mixed with Zeneca inhibitor linked to a lung surfactant peptide (target C). Animals receiving HNE were instilled with 40 micrograms HNE. Target 2 (Zeneca inhibitor) was administered in a 70-fold molar excess relative to HNE and Target C (Zeneca inhibitor linked to a lung surfactant peptide) was administered in a 100 fold molar excess relative to HNE as described in Example 4.
All animals were observed a four week period prior to sacrifice following IRB approved protocols and the lungs from each animal were removed for sectioning. The Hilar and central region was sectioned from the left lung and the caudal region was sectioned from the right lung of each animal. Lung sections were scored using blind-scoring by an expert as “E” for emphysema and “N” for no emphysema.
The distance between adjacent alveolar walls was also measured to quantitate the degree of lung destruction for each treatment group. Lung sections obtained from each animal were analyzed under a microscope (which is connected to a computer) and lines were drawn over the lung sections between adjacent alveolar walls. The distance along the lines was calculated to determine the average distance or mean linear intercept (MLI) between adjacent alveolar walls. An increase in the average distance between adjacent alveolar walls corresponds to an increase in lung destruction.

HNE = biological target: T1, HNE (Homo sapiens, UniProt P08246); test: kinetic studies of HNE inhibition; type: biochemical
T1 sequence (P08246 30-267): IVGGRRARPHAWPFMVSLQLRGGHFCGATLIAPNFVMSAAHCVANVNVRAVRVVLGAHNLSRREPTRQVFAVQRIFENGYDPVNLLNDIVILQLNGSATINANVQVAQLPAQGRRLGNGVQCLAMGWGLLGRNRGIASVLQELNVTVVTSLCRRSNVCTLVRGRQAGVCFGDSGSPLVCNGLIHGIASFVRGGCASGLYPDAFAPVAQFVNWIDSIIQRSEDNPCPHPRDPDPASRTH
Description: as §1

[2] = given with 40 micrograms HNE by intratracheal instillation, 2 hours, weight of BAL red blood cell fraction
[3] = HNE mixed with compound, four weeks, blind scoring

Target C (FPIPLPYCWLCRALIKRIQAMIPKG)
Lung Blood Cell Level, Group mean (mice exposed to HNE; [2]): 0.007 g | Lung Blood Cell Level, Mouse group 1 (mice exposed to HNE; [2]): 0 g | Lung Blood Cell Level, Mouse group 2 (mice exposed to HNE; [2]): 0.007 g | Lung Blood Cell Level, Mouse group 3 (mice exposed to HNE; [2]): 0.014 g | average blood level in the lungs (mice exposed to HNE; given with the HNE, 2 hours, HNE alone 0.053 grams): 0.007 grams | reduction of the average blood level in the lungs (mice exposed to HNE; given with the HNE, versus HNE alone): 87% | MLI (mean linear intercept between adjacent alveolar walls) ([1]; HNE (40 micrograms) mixed with compound, intratracheal, four weeks, saline only 44.40, HNE only 51.45): 45.82 μm | effect on HNE induced emphysema by MLI ([1]; HNE + compound, compared to HNE only and saline only): strongly inhibited HNE induced emphysema | effect on HNE induced emphysema, lung histology sections [1, 3]: strongly inhibited HNE induced emphysema | lung histology sections compared with animals receiving saline only [1, 3]: could not be distinguished in blind scoring | loss of potency as compared to Target 2 (HNE): loses approximately two orders of magnitude of potency | Ki (HNE; read-out: affinity for HNE): ~200 nM
